One experiment concerns MCF7/ADR. Put plainly: Anti-proliferative activity in cancer cells showing multiple drug resistance (MTT assay). The format is cell-based. The following applies: ratio of IC50 MCF7/ADR to IC50 MCF7. As for the experimental part:
(§1) HeLa cells (ATCC, USA), which are a human cervical cancer cell line, were dispensed into a 96-well plate at 2×10^3 cells/well, and the cells were treated with DMSO or the indole derivatives of the present invention, and then allowed to grow for 4 days. And then, MTT (3-(4,5-Dimethylthiazol-2-yl)-2,5-diphenyltetrazolium bromide) reagent was added to the wells at 10 μl/well. After 2 hours, the absorbance was measured at “OD 450” and statistical values were obtained using the plizm6 program. The data represent mean values of the results of two repeated assays (Table 1). Specifically, K562 and MCF7 (Bio Evaluation Center, Korea Research Institute of Bioscience and Biotechnology, Korea), and K562/ADR and MCF7/ADR (Bio Evaluation Center, Korea Research Institute of Bioscience and Biotechnology, Korea), which are multiple drug-resistant cell lines of the above mentioned cell lines, respectively, were cultured on a microtiter plate at 1-3×10^3 cells/well.

A further experiment deals with K562/ADR. Described as above. The following applies: ratio of IC50 K562/ADR to IC50 K562. The format is cell-based. As for the experimental part: as §1
Experiment [1] relates to human-derived skin cancer cell line (A431). Put plainly: Anti-cancer effect in human-derived skin cancer cell (A431) implantation nude mouse model. The format is in vivo, BALB/C female nude mouse. The following applies: for tumor growth inhibition: day 23; for tumor weight reduction: excised A431 tumors weighed. The protocol:
The human cancer cell line A431 which was kept frozen in liquid nitrogen was thawed and cell culture was conducted. Cells were cultured in a CO2 incubator (Forma, USA) at 37° C. and 5% CO2 for an appropriate period of time. On the last day of culture, all cancer cells were collected and counted and the cell concentration was adjusted to 1×10^7 cells/ml using serum free media. The culture solution thus prepared was injected subcutaneously in the axillary region between the scapula and chest wall in an amount of 0.3 ml per BALB/C female nude mouse (5 weeks old, Nara Biotech) (3×10^6 cells/mouse). […] To examine the toxicity levels of the repeated intraperitoneal administration of WCI-1031 to A431 cancer cell implantation nude mice, general symptoms and weight changes of the animals were observed during the administration period. […] On day 23 after the start of the drug administration, blood was taken from the mice through ophthalmic veins 2 hours after the last administration, and the mice were sacrificed using CO2 gas. Then the mice were photographed and the tumors was isolated and weighed in a chemical balance. After taking photographs, each tumor was divided in half, and the resultant tumors were fixed to liquid nitrogen and formalin, respectively.

For `COc1cccc2c1C(=O)c1c(O)c3c(c(O)c1C2=O)C[C@@](O)(C(=O)CO)C[C@@H]3O[C@H]1C[C@H](N)[C@H](O)[C@H](C)O1` [Doxorubicin, doxorubicin], the Resistance factor in the experiment with MCF7/ADR amounted to 169.57; in the experiment with K562/ADR, 767.91.

As for `CC(=O)O[C@H]1C(=O)[C@@]2(C)[C@H]([C@H](OC(=O)c3ccccc3)[C@]3(O)C[C@H](OC(=O)[C@H](O)[C@@H](NC(=O)c4ccccc4)c4ccccc4)C(C)=C1C3(C)C)[C@]1(OC(C)=O)CO[C@@H]1C[C@@H]2O` [Taxol, taxol], the Resistance factor with MCF7/ADR turned out to be 438.38; in the experiment on K562/ADR, 519.6.

On to `O=c1[nH]cc(F)c(=O)[nH]1` [Example 5-FU, 5-FU, reference compound], for which the tumor growth inhibition in experiment [1] (5-FU 2 mg/ml at 10 ml/kg, days 0-2, 5-9, 12-16, 19-23, p<0.01) is on record as 20.7%. Also, the tumor weight reduction in experiment [1] (5-FU 2 mg/ml at 10 ml/kg, p<0.05) was determined as 20.8%.

As to `CC[C@]1(O)C[C@@H]2CN(CCc3c([nH]c4ccccc34)[C@@](C(=O)OC)(c3cc4c(cc3OC)N(C)[C@H]3[C@@](O)(C(=O)OC)[C@H](OC(C)=O)[C@]5(CC)C=CCN6CC[C@]43[C@@H]65)C2)C1` [Vinblastine, vinblastine], the figures for the Resistance factor in the experiment with MCF7/ADR and in the experiment on K562/ADR were 18.17 and 15.63, respectively.

The molecule `COc1cc2c(c(OC)c1OC)-c1ccc(OC)c(=O)cc1[C@@H](NC(C)=O)CC2` [colchicine, reference compound] registered a tumor growth inhibition in experiment [1] (colchicine 0.07 mg/kg, days 0-23, p<0.05) of 17.6%. The same molecule came in with a tumor weight reduction in experiment [1] (colchicine 0.07 mg/kg, p<0.05) of 17.6%. For the same molecule, the values for the Resistance factor with MCF7/ADR and in the experiment on K562/ADR were 34.15 and 22.91, respectively.

These data come from patent US20210292306A1, “NOVEL INDOLE DERIVATIVE AND ANTI-CANCER CONPOSITION CONTAINING SAME” (KOREA RESEARCH INSTITUTE OF BIOSCIENCE AND BIOTECHNOLOGY, priority 2016, published 2021).
